*1 amine or outer side, *2 acyl side, *3 side chain or, on linkers, in order; H or OH if unused. Where a SMILES comes first, the peptide text is derived from it. [ ]: non-standard residue; d: D form. The star is where a group is joined. Cmp = 4-carboxymethyl-piperidine, O=C(CC1CCN([*:1])CC1)[*:2]; Octanoyl = CCCCCCCC(=O)*; Dap = NC[C@H](N)C(=O)O; Octyl = CCCCCCCC*
Experiments:
[1] = system: normal chow-fed C57BL/6J male mice; experiment: Effect on food intake in normal mice (HM-2 automated monitoring); format: in vivo, mouse; settings: for Accumulated FI at 6h: 300 nmol/kg s.c. once, light phase 0-6 h, modified protocol (food access re-opened 2 h after dosing); for Effects on FI during the dark period: modified protocol, 0-24 h monitoring (FIG. 2B)
Procedure: Normal chow-fed C57BL/6J male mice were used. The mice were kept in an automated food- and water-intake monitoring system (HM-2) which allows automated on-line measurements of accumulated food intake (FI) and other parameters. Food intake was monitored by the HM-2 system up to 24 h after dosing. The mice were kept 6 per cage, and each dosing group consisted of 6 animals.
In the initial experimental set-up with ghrelin as test compound, animals were allowed free access to food directly after treatment, and the resulting data for food intake are shown in FIG. 1A herein (vide infra).
In order to further investigate the “duration of action” of ghrelin and the other test compounds a new protocol was defined. In the modified protocol the gate to the food chambers was closed prior to dosing with vehicle or test compound and was re-opened 2 hours thereafter. The resulting data for food intake following dosing with ghrelin or vehicle are summarized in FIG. 1B (vide infra), while the corresponding data for food intake following dosing with each of the of the other four test compounds. (Compound 16, 22, 23 or 43 of the invention) or with vehicle are summarized in FIG. 2A (data for monitoring up to 6 hours after dosing) and FIG. 2B (data for monitoring up to 24 hours after dosing).

[2] = target: human growth hormone secretagogue receptor type 1a (human, UniProt Q92847 1-366); experiment: cell-based or functional assay
Chain of human growth hormone secretagogue receptor type 1a (Q92847 whole entry): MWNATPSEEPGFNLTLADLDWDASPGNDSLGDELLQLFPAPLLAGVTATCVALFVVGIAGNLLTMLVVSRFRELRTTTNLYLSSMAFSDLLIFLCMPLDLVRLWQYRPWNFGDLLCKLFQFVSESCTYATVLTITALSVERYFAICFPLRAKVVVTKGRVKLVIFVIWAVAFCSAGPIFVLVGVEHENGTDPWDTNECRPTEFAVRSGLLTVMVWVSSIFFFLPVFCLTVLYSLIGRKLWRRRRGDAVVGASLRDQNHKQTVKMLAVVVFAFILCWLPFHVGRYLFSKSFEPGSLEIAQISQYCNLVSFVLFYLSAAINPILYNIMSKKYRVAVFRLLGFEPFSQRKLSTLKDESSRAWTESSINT

Molecule: CCCCCCCC(=O)OC[C@H](NC(=O)[C@H](CO)NC(=O)CN)C(=O)N[C@@H](Cc1ccccc1)C(=O)N[C@@H](CC(C)C)C(=O)N[C@@H](CO)C(=O)N1CCC[C@H]1C(=O)N[C@@H](CCC(=O)O)C(=O)N[C@@H](Cc1c[nH]cn1)C(=O)N[C@@H](CCC(N)=O)C(=O)N[C@@H](CCCNC(=N)N)C(=O)N[C@H](C(=O)N[C@@H](CCC(N)=O)C(=O)N[C@@H](CCC(N)=O)C(=O)N[C@@H](CCCNC(=N)N)C(=O)N[C@@H](CCCCN)C(=O)N[C@@H](CCC(=O)O)C(=O)N[C@@H](CO)C(=O)N[C@@H](CCCCN)C(=O)N[C@@H](CCCCN)C(=O)N1CCC[C@H]1C(=O)N1CCC[C@H]1C(=O)N[C@@H](C)C(=O)N[C@@H](CCCCN)C(=O)N[C@@H](CC(C)C)C(=O)N[C@@H](CCC(N)=O)C(=O)N1CCC[C@H]1C(=O)N[C@@H](CCCNC(=N)N)C(=O)O)C(C)C [Compound 1, reference compound]
- Effect on food intake (FI) ([1]; 300 nmol/kg s.c., access to food delayed for 2 h after administration (FIG. 1B)): essentially lost
- Food intake (FI) compared to PBS treated controls ([1]; 300 nmol/kg s.c., free access to food immediately after dosing (FIG. 1A)): increased FI

Molecule: CCCCCCCCCCCCCCCC(=O)NCCCC[C@H](NC(=O)[C@H](CO)NC(=O)[C@H](CCC(=O)O)NC(=O)[C@H](CCCCN)NC(=O)[C@H](CCCNC(=N)N)NC(=O)[C@H](CCC(N)=O)NC(=O)[C@H](CCC(N)=O)NC(=O)[C@@H](NC(=O)[C@H](CCCNC(=N)N)NC(=O)[C@H](CCC(N)=O)NC(=O)[C@H](Cc1c[nH]cn1)NC(=O)[C@H](CCC(=O)O)NC(=O)[C@@H]1CCCN1C(=O)[C@H](CO)NC(=O)[C@H](CC(C)C)NC(=O)[C@H](Cc1ccccc1)NC(=O)[C@H](COCCCCCCCC)NC(=O)[C@H](CO)NC(=O)[C@@H]1CCCN1)C(C)C)C(=O)N[C@@H](CCCCN)C(=O)N1CCC[C@H]1C(=O)N1CCC[C@H]1C(=O)N[C@@H](C)C(=O)N[C@@H](CCCCN)C(=O)N[C@@H](CC(C)C)C(=O)N[C@@H](CCC(N)=O)C(=O)N1CCC[C@H]1C(=O)N[C@@H](CCCNC(=N)N)C(=O)O [Compound 16]
- Accumulated FI at 6h [1]: 0.65 ± 0.1 g

Molecule: CCCCCCCC(=O)NC[C@H](NC(=O)[C@H](CO)NC(=O)[C@@H]1CCCN1)C(=O)N[C@@H](Cc1ccccc1)C(=O)N[C@@H](CC(C)C)C(=O)N[C@@H](CO)C(=O)N1CCC[C@H]1C(=O)N[C@@H](CCC(=O)O)C(=O)N[C@@H](Cc1c[nH]cn1)C(=O)N[C@@H](CCC(N)=O)C(=O)N[C@@H](CCCNC(=N)N)C(=O)N[C@H](C(=O)N[C@@H](CCC(N)=O)C(=O)N[C@@H](CCC(N)=O)C(=O)N[C@@H](CCCNC(=N)N)C(=O)N[C@@H](CCCCN)C(=O)N[C@@H](CCC(=O)O)C(=O)N[C@@H](CO)C(=O)N[C@@H](CCCCN)C(=O)N[C@@H](CCCCN)C(=O)N1CCC[C@H]1C(=O)N1CCC[C@H]1C(=O)N[C@@H](C)C(=O)N[C@@H](CCCCN)C(=O)N[C@@H](CC(C)C)C(=O)N[C@@H](CCC(N)=O)C(=O)N1CCC[C@H]1C(=O)N[C@@H](CCCNC(=N)N)C(N)=O)C(C)C [Compound 22]
- Accumulated FI at 6h [1]: 1.87 ± 0.23 g
- Effects on FI during the dark period ([1]; 300 nmol/kg s.c.): significant effects

Molecule: CCCCCCCC(=O)NC[C@H](NC(=O)[C@H](CO)NC(=O)[C@@H]1CCCN1)C(=O)N[C@@H](Cc1ccccc1)C(=O)N[C@@H](CC(C)C)C(=O)N[C@@H](CO)C(=O)N1CCC[C@H]1C(=O)N[C@@H](CCC(=O)O)C(=O)N[C@@H](Cc1c[nH]cn1)C(=O)N[C@@H](CO)C(=O)N[C@@H](CCCNC(=N)N)C(=O)N[C@H](C(=O)N[C@@H](CO)C(=O)N[C@@H](CO)C(=O)N[C@@H](CCCNC(=N)N)C(=O)N[C@@H](CCCCN)C(=O)N[C@@H](CCC(=O)O)C(=O)N[C@@H](CO)C(=O)N[C@@H](CCCCN)C(=O)N[C@@H](CCCCN)C(=O)N1CCC[C@H]1C(=O)N1CCC[C@H]1C(=O)N[C@@H](C)C(=O)N[C@@H](CCCCN)C(=O)N[C@@H](CC(C)C)C(=O)N[C@@H](CO)C(=O)N1CCC[C@H]1C(=O)N[C@@H](CCCNC(=N)N)C(N)=O)C(C)C [Compound 23] (H-PS[Dap](Octanoyl)FLSPEHSRVSSRKESKKPPAKLSPR-NH2)
- Effects on FI in the 0-6 h light period ([1]; 300 nmol/kg s.c., modified protocol (FIG. 2A)): moderate effects
- Effects on FI during the dark period ([1]; 300 nmol/kg s.c.): significant effects

Molecule: CCCCCCCC(=O)NC[C@H](NC(=O)[C@H](CO)NC(=O)[C@@H]1CCCN1)C(=O)N[C@@H](Cc1ccccc1)C(=O)N[C@@H](CC(C)C)C(=O)N[C@@H](CO)C(=O)N1CCC[C@H]1C(=O)N[C@@H](Cc1ccc(O)cc1)C(N)=O [Compound 42, H-PS-Dap(N-octanoyl)-FLSPY-NH2] (H-PS[Dap](Octanoyl)FLSPY-NH2)
- Accumulated FI at 6h [1]: 0.2 ± 0.08 g

Molecule: CCCCCCCCCCCCCCCC(=O)N[C@@H](CCC(=O)NCCCC[C@H](NC(=O)[C@H](CO)NC(=O)[C@H](CCC(=O)O)NC(=O)[C@H](CCCCN)NC(=O)[C@H](CCCNC(=N)N)NC(=O)[C@H](CCC(N)=O)NC(=O)[C@H](CCC(N)=O)NC(=O)[C@@H](NC(=O)[C@H](CCCNC(=N)N)NC(=O)[C@H](CCC(N)=O)NC(=O)[C@H](Cc1c[nH]cn1)NC(=O)[C@H](CCC(=O)O)NC(=O)[C@@H]1CCCN1C(=O)[C@H](CO)NC(=O)[C@H](CC(C)C)NC(=O)[C@H](Cc1ccccc1)NC(=O)[C@H](COCCCCCCCC)NC(=O)[C@H](CO)NC(=O)[C@@H]1CCCN1)C(C)C)C(=O)N[C@@H](CCCCN)C(=O)N1CCC[C@H]1C(=O)N1CCC[C@H]1C(=O)N[C@@H](C)C(=O)N[C@@H](CCCCN)C(=O)N[C@@H](CC(C)C)C(=O)N[C@@H](CCC(N)=O)C(=O)N1CCC[C@H]1C(=O)N[C@@H](CCCNC(=N)N)C(N)=O)C(=O)O [Compound 43]
- Accumulated FI at 6h [1]: 0.37 ± 0.14 g

Molecule: CCCCCCCCOC[C@H](NC(=O)[C@H](CO)NC(=O)[C@@H]1CCCN1)C(=O)N[C@@H](Cc1ccccc1)C(=O)N[C@@H](CC(C)C)C(=O)N[C@@H](CO)C(=O)N1CCC[C@H]1C(=O)N[C@@H](CCC(=O)O)C(=O)N[C@@H](Cc1c[nH]cn1)C(=O)N[C@@H](CO)C(=O)N[C@@H](CCCNC(=N)N)C(=O)N[C@H](C(=O)N[C@@H](CO)C(=O)N[C@@H](CO)C(=O)N[C@@H](CCCNC(=N)N)C(=O)N[C@@H](CCCCN)C(=O)N[C@@H](CCC(=O)O)C(=O)N[C@@H](CO)C(=O)N[C@@H](CO)C(=O)N[C@@H](CCCCN)C(=O)N1CCC[C@H]1C(=O)N1CCC[C@H]1C(=O)N[C@@H](C)C(=O)N[C@@H](CCCCN)C(=O)N[C@@H](CC(C)C)C(=O)N[C@@H](CO)C(=O)N1CCC[C@H]1C(=O)N[C@@H](CCCNC(=N)N)C(N)=O)C(C)C [Compound 45] (H-PSS(Octyl)FLSPEHSRVSSRKESSKPPAKLSPR-NH2)
- Accumulated FI at 6h [1]: 0.38 ± 0.13 g

Molecule: CCCCCCCCOC[C@H](NC(=O)[C@H](CO)NC(=O)[C@@H]1CCCN1)C(=O)N[C@@H](Cc1ccccc1)C(=O)N[C@@H](CC(C)C)C(=O)N[C@@H](CO)C(=O)N1CCC[C@H]1C(=O)N[C@@H](CCC(=O)O)C(=O)N[C@@H](Cc1c[nH]cn1)C(=O)N[C@@H](CO)C(=O)N[C@@H](CCCNC(=N)N)C(=O)N[C@H](C(=O)N[C@@H](CO)C(=O)N[C@@H](CO)C(=O)N[C@@H](CCCNC(=N)N)C(=O)N[C@@H](CCCCN)C(=O)N[C@@H](CCC(=O)O)C(=O)N[C@@H](CO)C(=O)N[C@@H](CCCCN)C(=O)N[C@@H](CO)C(=O)N1CCC[C@H]1C(=O)N1CCC[C@H]1C(=O)N[C@@H](C)C(=O)N[C@@H](CCCCN)C(=O)N[C@@H](CC(C)C)C(=O)N[C@@H](CO)C(=O)N1CCC[C@H]1C(=O)N[C@@H](CCCNC(=N)N)C(N)=O)C(C)C [Compound 46] (H-PSS(Octyl)FLSPEHSRVSSRKESKSPPAKLSPR-NH2)
- Accumulated FI at 6h [1]: 1.68 ± 0.2 g

Molecule: CCCCCCCCOC[C@H](NC(=O)[C@H](CO)NC(=O)[C@@H]1CCCN1)C(=O)N[C@@H](Cc1ccccc1)C(=O)N[C@@H](CC(C)C)C(=O)N[C@@H](CO)C(=O)N1CCC[C@H]1C(=O)N[C@@H](CCC(=O)O)C(=O)N[C@@H](Cc1c[nH]cn1)C(=O)N[C@@H](CO)C(=O)N[C@@H](CCCNC(=N)N)C(=O)N[C@H](C(=O)N[C@@H](CO)C(=O)N[C@@H](CO)C(=O)N[C@@H](CCCNC(=N)N)C(=O)N[C@@H](CCCCN)C(=O)N[C@@H](CCC(=O)O)C(=O)N[C@@H](CO)C(=O)N[C@@H](CO)C(=O)N[C@@H](CO)C(=O)N1CCC[C@H]1C(=O)N1CCC[C@H]1C(=O)N[C@@H](C)C(=O)N[C@@H](CCCCN)C(=O)N[C@@H](CC(C)C)C(=O)N[C@@H](CO)C(=O)N1CCC[C@H]1C(=O)N[C@@H](CCCNC(=N)N)C(N)=O)C(C)C [Compound 47] (H-PSS(Octyl)FLSPEHSRVSSRKESSSPPAKLSPR-NH2)
- Accumulated FI at 6h [1]: 1.55 ± 0.16 g

B1: H-Cmp-S(O-octanoyl)-FLSPEHQRVQQRKESKKPPAKLQPR-OH (peptide)
peptide: H-[Cmp]S(Octanoyl)FLSPEHQRVQQRKESKKPPAKLQPR-OH
SMILES: CCCCCCCC(=O)OC[C@H](NC(=O)CC1CCNCC1)C(=O)N[C@@H](Cc1ccccc1)C(=O)N[C@@H](CC(C)C)C(=O)N[C@@H](CO)C(=O)N1CCC[C@H]1C(=O)N[C@@H](CCC(=O)O)C(=O)N[C@@H](Cc1c[nH]cn1)C(=O)N[C@@H](CCC(N)=O)C(=O)N[C@@H](CCCNC(=N)N)C(=O)N[C@H](C(=O)N[C@@H](CCC(N)=O)C(=O)N[C@@H](CCC(N)=O)C(=O)N[C@@H](CCCNC(=N)N)C(=O)N[C@@H](CCCCN)C(=O)N[C@@H](CCC(=O)O)C(=O)N[C@@H](CO)C(=O)N[C@@H](CCCCN)C(=O)N[C@@H](CCCCN)C(=O)N1CCC[C@H]1C(=O)N1CCC[C@H]1C(=O)N[C@@H](C)C(=O)N[C@@H](CCCCN)C(=O)N[C@@H](CC(C)C)C(=O)N[C@@H](CCC(N)=O)C(=O)N1CCC[C@H]1C(=O)N[C@@H](CCCNC(=N)N)C(=O)O)C(C)C
- EC50 (nM); Ca2+ induction in HEK293 cells stably expressing the human ghrelin receptor [2]: 0.558 nM
